In patent US20230108906A1, “SUBSTITUTED BICYCLIC AND TRICYCLIC UREAS AND AMIDES, ANALOGUES THEREOF, AND METHODS USING SAME” (Arbutus Biopharma Corporation, priority 2019, published 2023):

What follows are molecules tested on HBV rcDNA in HepDE19 cells (assay: HepDE19 assay with bDNA quantitation of HBV rcDNA). Details: Hepatitis B virus, HepDE19, 168 h, inhibition of rcDNA formation in HepDE19 cells (HepG2 derived), Tet-free medium, 7 day incubation, Quantigene 2.0 bDNA readout, top concentration 25 μM; read-out: DE-19bDNA EC50.
Type: cell-based, hepatitis B virus (HBV)
How it was run: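 HepDE19 cells (HepG2-derived, Tet-regulated HBV) switched to Tet-free medium, then treated 7 days at 37 °C with compound, 8-point titration from 25 μM, 0.5% DMSO. rcDNA quantified by bDNA with HBV probes; EC50/EC90 via 4-parameter fit. Viability (CC50) by CellTiter-Glo ATP on 5,000 cells/well after 4 days.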
`O=C(Nc1ccc(F)c(Cl)c1)N(CCCO)C1CCCc2[nH]c(=O)cc(C(F)(F)F)c21` (stereo not drawn) [Compound 3, 3-(3-Chloro-4-fluorophenyl)-1-(3-hydroxypropyl)-1-(2-oxo-4-(trifluoromethyl)-1,2,5,6,7,8-hexahydroquinolin-5-yl)urea] gave an EC50 of 1700 nM.
Molecule `CN(C(=O)Nc1ccc(F)c(Cl)c1)[C@@H]1COCc2c1c1cc(F)c(F)cc1c(=O)n2CCO` [Compound 254, (S)-3-(3-Chloro-4-fluorophenyl)-1-(8,9-difluoro-5-(2-hydroxyethyl)-6-oxo-1,4,5,6-tetrahydro-2H-pyrano[3,4-c]isoquinolin-1-yl)-1-methylurea] has an EC50 of 58 nM.
`CN(C(=O)Nc1ccc(F)c(Cl)c1)C1COCc2[nH]c(=O)c3cc(F)ccc3c21` (racemic) [Compound 23, 3-(3-Chloro-4-fluorophenyl)-1-(8-fluoro-6-oxo-1,4,5,6-tetrahydro-2H-pyrano[3,4-c]isoquinolin-1-yl)-1-methylurea] showed an EC50 of 20 nM.
`CCN(C(=O)Nc1ccc(F)c(Cl)c1)[C@@H]1COCc2[nH]c(=O)c3cc(F)c(F)cc3c21` (single isomer, unassigned) [Compound 88] gave an EC50 of 10 nM.
`CN(C(=O)Nc1ccc(F)c(Cl)c1)[C@@H]1COCc2[nH]c(=O)c3cc(F)ccc3c21` (single isomer, unassigned) [Compound 41] gave an EC50 of 10 nM.
Molecule `CN(C(=O)Nc1ccc(F)c(C(F)F)c1)[C@@H]1COCc2nc(OCCN)c3cc(F)c(F)cc3c21` [Compound 252, (S)-1-(6-(2-Aminoethoxy)-8,9-difluoro-1,4-dihydro-2H-pyrano[3,4-c]isoquinolin-1-yl)-3-(3-(difluoromethyl)-4-fluorophenyl)-1-methylurea] has an EC50 of 20 nM.
`CN(C(=O)Nc1cc(F)c(F)c(F)c1)C1CCCc2[nH]c(=O)c3cc(F)ccc3c21` (stereo not drawn) [Compound 33, 1-(8-Fluoro-6-oxo-1,2,3,4,5,6-hexahydrophenanthridin-1-yl)-1-methyl-3-(3,4,5-trifluorophenyl)urea] was tested, and the EC50 was 100 nM.
In the case of `CN(C(=O)Nc1ccc(F)c(Cl)c1)C1COCc2[nH]c(=O)c3ccccc3c21` (racemic) [Compound 18, 3-(3-Chloro-4-fluorophenyl)-1-methyl-1-(6-oxo-1,4,5,6-tetrahydro-2H-pyrano[3,4-c]isoquinolin-1-yl)urea], the EC50 is reported as 30 nM.
Molecule `COc1nc2c(c3ccccc13)C(N(C)C(=O)Nc1ccc(F)c(Cl)c1)CCC2` (stereo not drawn) [Compound 34, 3-(3-Chloro-4-fluorophenyl)-1-(6-methoxy-1,2,3,4-tetrahydrophenanthridin-1-yl)-1-methylurea] has an EC50 of 1800 nM.
For `COc1nc2c(c3cc(F)c(F)cc13)[C@H](N(C)C(=O)Nc1ccc(F)c(C(F)F)c1)COC2` [Compound 234, (S)-1-(8,9-Difluoro-6-methoxy-1,4-dihydro-2H-pyrano[3,4-c]isoquinolin-1-yl)-3-(3-(difluoromethyl)-4-fluorophenyl)-1-methylurea], the EC50 was 50 nM.
Molecule `Cc1cc(NC(=O)N(C)C2COCc3[nH]c(=O)c4cc(Cl)ccc4c32)ccc1F` (stereo not drawn) [Compound 58, 1-(8-Chloro-6-oxo-1,4,5,6-tetrahydro-2H-pyrano[3,4-c]isoquinolin-1-yl)-3-(4-fluoro-3-methylphenyl)-1-methylurea] has an EC50 of 40 nM.
`CN(C(=O)Nc1ccc(F)c(Cl)c1)C1CCCc2[nH]c(=O)c3c(c21)COCC3` (stereo not drawn) [Compound 80, 3-(3-Chloro-4-fluorophenyl)-1-methyl-1-(5-oxo-3,4,5,6,7,8,9,10-octahydro-1H-pyrano[4,3-c]quinolin-10-yl)urea] showed an EC50 of 2800 nM.
Work on `CCN(C(=O)Nc1ccc(F)c(C#N)c1)[C@@H]1COCc2[nH]c(=O)c3cc(F)c(F)cc3c21` (single isomer, unassigned) [Compound 138] yielded an EC50 of 10 nM.
With `O=C(Nc1ccc(F)c(Cl)c1)N[C@@H]1COCc2[nH]c(=O)c3cc(F)ccc3c21` (single isomer, unassigned) [Compound 67] the EC50 was 90 nM.
Molecule `CCN(C(=O)Nc1ccc(F)c(Cl)c1)C1COCc2[nH]c(=O)c3cc(C#N)ccc3c21` (stereo not drawn) [Compound 90, 3-(3-Chloro-4-fluorophenyl)-1-(8-cyano-6-oxo-1,4,5,6-tetrahydro-2H-pyrano[3,4-c]isoquinolin-1-yl)-1-ethylurea] has an EC50 of 360 nM.

Same assay, conditions: inhibition of rcDNA formation in HepDE19 cells (HepG2 derived), Tet-free medium, 7 day incubation, Quantigene 2.0 bDNA readout, top concentration 25 μM; read-out: DE-19bDNA EC50
Work on `CN(C(=O)Nc1ccc(F)c(Cl)c1)C1COCc2[nH]c(=O)c3c(c21)CCOC3` (single isomer, unassigned) [Compound 91, 3-(3-Chloro-4-fluorophenyl)-1-methyl-1-(6-oxo-1,2,4,5,6,7,9,10-octahydrodipyrano[3,4-b:4′,3′-d]pyridin-1-yl)urea] yielded an EC50 of 11000 nM.
`CN(C(=O)Nc1ccc(F)c(Cl)c1)C1COCc2nc(NCCO)c3cc(F)c(F)cc3c21` (single isomer, unassigned) [Compound 246, 3-(3-Chloro-4-fluorophenyl)-1-(8,9-difluoro-6-((2-hydroxyethyl)amino)-1,4-dihydro-2H-pyrano[3,4-c]isoquinolin-1-yl)-1-methylurea] gave an EC50 of 20 nM.
Work on `CCN(C(=O)Nc1ccc(F)c(F)c1)C1CCCc2[nH]c(=O)c3c(c21)CCCC3` (single isomer, unassigned) [Compound 51, 3-(3,4-Difluorophenyl)-1-ethyl-1-(6-oxo-1,2,3,4,5,6,7,8,9,10-decahydrophenanthridin-1-yl)urea] yielded an EC50 of 100 nM.
In the case of `CC(=O)N1Cc2[nH]c(=O)c3cc(F)ccc3c2C(N(C)C(=O)Nc2ccc(F)c(C#N)c2)C1` (single isomer, unassigned) [Compound 165, 1-(3-Acetyl-8-fluoro-6-oxo-1,2,3,4,5,6-hexahydrobenzo[c][1,7]naphthyridin-1-yl)-3-(3-cyano-4-fluorophenyl)-1-methylurea], the EC50 is reported as ≥ 25000 nM.
Work on `CN(C(=O)Nc1ccc(F)c(F)c1)C1CCCc2[nH]c(=O)c3c(c21)COCC3` (single isomer, unassigned) [Compound 82, 3-(3,4-Difluorophenyl)-1-methyl-1-(5-oxo-3,4,5,6,7,8,9,10-octahydro-1H-pyrano[4,3-c]quinolin-10-yl)urea] yielded an EC50 of 7300 nM.
For `CN(C(=O)Nc1ccc(F)cc1)C1COCc2[nH]c(=O)c3cc(F)c(F)cc3c21` (single isomer, unassigned) [Compound 104, 1-(8,9-Difluoro-6-oxo-1,4,5,6-tetrahydro-2H-pyrano[3,4-c]isoquinolin-1-yl)-3-(4-fluorophenyl)-1-methylurea], the EC50 was 20 nM.
`O=C(Nc1ccc(F)c(Cl)c1)N(CCCO)C1COCc2[nH]c(=O)c3cc(F)ccc3c21` (single isomer, unassigned) [Compound 110, 3-(3-Chloro-4-fluorophenyl)-1-(8-fluoro-6-oxo-1,4,5,6-tetrahydro-2H-pyrano[3,4-c]isoquinolin-1-yl)-1-(3-hydroxypropyl)urea] showed an EC50 of 20 nM.
With `CC(=O)N1Cc2[nH]c(=O)c3cc(F)ccc3c2C(N(C)C(=O)Nc2ccc(F)c(Cl)c2)C1` (single isomer, unassigned) [Compound 158, 1-(3-Acetyl-8-fluoro-6-oxo-1,2,3,4,5,6-hexahydrobenzo[c][1,7]naphthyridin-1-yl)-3-(3-chloro-4-fluorophenyl)-1-methylurea] the EC50 was 2300 nM.
`CN(C(=O)Nc1ccc(F)c(Cl)c1)C1CN(CCO)Cc2[nH]c(=O)c3cc(F)c(F)cc3c21` (single isomer, unassigned) [Compound 180, 3-(3-Chloro-4-fluorophenyl)-1-(8,9-difluoro-3-(2-hydroxyethyl)-6-oxo-1,2,3,4,5,6-hexahydrobenzo[c][1,7]naphthyridin-1-yl)-1-methylurea] gave an EC50 of 1400 nM.
For `CN(C(=O)Nc1ccc(F)c(F)c1)C1COCc2[nH]c(=O)c3c(c21)COCC3` (single isomer, unassigned) [Compound 86, 3-(3,4-Difluorophenyl)-1-methyl-1-(5-oxo-1,3,4,5,6,7,9,10-octahydrodipyrano[3,4-b:3′,4′-d]pyridin-10-yl)urea], the EC50 was ≥ 25000 nM.
`CN(C(=O)Nc1ccc(F)c(Cl)c1)C1CS(=O)(=O)Cc2[nH]c(=O)c3cc(F)c(F)cc3c21` (single isomer, unassigned) [Compound 204, 3-(3-Chloro-4-fluorophenyl)-1-(8,9-difluoro-3,3-dioxido-6-oxo-1,4,5,6-tetrahydro-2H-thiopyrano[3,4-c]isoquinolin-1-yl)-1-methylurea] was tested, and the EC50 was 1400 nM.
With `CN(C(=O)Nc1ccc(F)c(F)c1)C1COCc2[nH]c(=O)c3cc(F)c(F)cc3c21` (single isomer, unassigned) [Compound 118, 1-(8,9-Difluoro-6-oxo-1,4,5,6-tetrahydro-2H-pyrano[3,4-c]isoquinolin-1-yl)-3-(3,4-difluorophenyl)-1-methylurea] the EC50 was 10 nM.
For `CN(C(=O)Nc1ccc(F)c(Cl)c1)C1COCc2[nH]c(=O)c3c(c21)COCC3` (single isomer, unassigned) [Compound 83, 3-(3-Chloro-4-fluorophenyl)-1-methyl-1-(5-oxo-4,5,6,7,9,10-hexahydro-1H,3H-dipyrano[3,4-b:3′,4′-d]pyridin-10-yl)urea], the EC50 was ≥ 25000 nM.
In the case of `CN(C(=O)Nc1ccc(F)c(C#N)c1)C1CSCc2[nH]c(=O)c3cc(F)c(F)cc3c21` (single isomer, unassigned) [Compound 190, 3-(3-Cyano-4-fluorophenyl)-1-(8,9-difluoro-6-oxo-1,4,5,6-tetrahydro-2H-thiopyrano[3,4-c]isoquinolin-1-yl)-1-methylurea], the EC50 is reported as 20 nM.
In the case of `CN(C(=O)Nc1ccc(F)c(C(F)F)c1)C1CNCc2[nH]c(=O)c3cc(F)c(F)cc3c21` (single isomer, unassigned) [Compound 216, 1-(8,9-Difluoro-6-oxo-1,2,3,4,5,6-hexahydrobenzo[c][1,7]naphthyridin-1-yl)-3-(3-(difluoromethyl)-4-fluorophenyl)-1-methylurea], the EC50 is reported as 3500 nM.
